Several values for one entry are separate records, joined by “and”; a condition that tells them apart may be missing. Equal entries are not always repeated. Where two headings read alike, the source gives them in different places.
Assays:
[1] = Freeze-thaw stability in spiked pooled human plasma; format: physicochemical
[2] = Plasma concentrations in patients on oral antitumor therapy (LC-MS); format: in vivo, human; details: for Measured plasma concentration: 24 h, ±4 h of trough level: no
Source text: The liquid chromatography-mass spectrometer system consisted of a Thermo Scientific Dionex UltiMate^TM 3000 with an integrated and temperature controlled autosampler (Thermo Fisher Scientific, Dreieich, Germany). An Acquity UPLC® BEH C18 column (2.1 × 100 mm, 1.7 µm; Waters, Milford, CT, USA) equipped with an Acquity UPLC® BEH C18 VanGuard^TM Pre-Column (2.1 × 5 mm, 1.7 µm; Waters, Milford, CT, USA) was used for chromatographic separation. The Q-Exactive^TM Focus mass spectrometer (MS) was hyphenated with a heated electrospray ionization (HESI) source (both from Thermo Fisher Scientific, Dreieich, Germany).
Chromatographic separation was achieved using a gradient elution with water containing 0.5% (v/v) FA (eluent A) and MeOH with 0.1% (v/v) FA (eluent B). The injection volume was 5 µL. The gradient program is shown in Supplement Table S2. The flow rate was 0.5 mL/min with a total run time of 15 min. The column heater was maintained at 50 °C and the autosampler temperature was 4 °C.
The following MS and HESI settings were maintained for all analyses: Sheath gas, auxiliary gas, and sweep gas flow rates were set to 60, 20, and 0, respectively. The spray voltage was 4000 V. Both capillary and auxiliary gas heater temperatures were set to 400 °C. High-purity nitrogen gas was used for the HESI source gases and for the bath gas of the C-trap. […] The HESI source was configured in positive mode for ionization.
The stock solutions were stored in glass vials at −80 °C. Aliquots of all stock solutions were combined in ACN (volumes of individual stock solution solvents are negligible) to obtain a standard solution of all analytes with an individual concentration of 200% of the respective trough level (cmin). Eight individual working standards were prepared by stepwise dilution of this standard solution with concentrations from 10 to 200% cmin (shown in Supplement Table S3). Furthermore, the four individual IS stock solutions were combined and diluted to 50 ng/mL with ACN. Calibration and validation standards were prepared by spiking 50 µL pooled human plasma with 10 µL of the respective working solution. Next, 250 µL IS solution (50 ng/mL in ACN) were added and vortexed vigorously. […] Then, 100 µL supernatant were transferred to 300 µL HPLC insert glass vials and diluted with 100 µL eluent (90% A/10% B). For blank samples, 50 µL pooled human plasma were combined with 10 µL ACN (instead of working solution) and prepared as described above. The calibration and validation standards were freshly prepared before every run. Patient plasma samples were prepared as calibration and validation standards (no additional processing step necessary), except for adding 10 µL ACN instead of 10 µL working standard. Before sample preparation, the frozen plasma samples were thawed in absence of light at 4 °C.
Blood samples were collected over the entire dosing interval from patients treated with an oral anticancer drug as listed in Supplement Table S4. […] A maximum of two samples at two different time points throughout the entire dosing interval were collected per patient. Treatment duration before collection was at least five half-lives (depending on the specific oral anticancer drug). The samples were collected in K3-EDTA tubes.
A total of 71 blood samples from 39 patients treated with 14 different oral anticancer drugs were collected (see Supplement Table S4 for details). All patients were recruited from independent outpatient clinics associated with the Comprehensive Cancer Center of the University Hospital Erlangen (CCC Erlangen-EMN). Of 71 blood samples, 41 were taken ±4 h of trough level (cmin).

[3] = Autosampler stability of ready for injection samples; format: physicochemical, human
[4] = Reference trough level (cmin) at steady state; format: in vivo, human; details: minimum steady-state plasma concentration, calculated based on cmax; ref supplement [7], [2,5,24], [51]
[5] = Short-term stability in spiked pooled human plasma (bench-top, 4 °C, 56 °C)
[6] = Long-term stability in spiked pooled human plasma
[7] = parameters: method as in supplement references [1-55] as printed per drug; details: minimum steady-state blood plasma concentration after multiple dose administration; ref supplement references [1-55] per drug; cited from earlier work
[8] = patient plasma, all samples, r.c. = respective cmin

## C=CC(=O)N1CCC[C@@H](n2nc(-c3ccc(Oc4ccccc4)cc3)c3c(N)ncnc32)C1 [Ibrutinib]
[1]; validation standard 2xLLOV
  Freeze-Thaw Accuracy [%]: 100.8%
[1]; validation standard LLOV
  Freeze-Thaw Accuracy [%]: 100.2%
[1]; validation standard MOV
  Freeze-Thaw Accuracy [%]: 93.3%
[1]; validation standard ULOV
  Freeze-Thaw Accuracy [%]: 95.6%
[2]; 420 mg/day
  Measured plasma concentration: 3.2 ng/mL and 4.2 ng/mL
[2]; 560 mg/day
  Measured plasma concentration: 115.2 ng/mL and 139.5 ng/mL
[2]; patient plasma concentrations
  Interpatient Coefficient of Variation [%]: 110.0%
[2]; [8]
  Median Concentration of All Samples [% of r.c.]: 110.1 % of r.c.
  Min–Max Concentration [% of r.c.]: 4.8–211.4 % of r.c.
[3]; validation standard 2xLLOV
  Autosampler (24h, 4°C) Accuracy [%]: 101.4%
  Autosampler (72h, 4°C) Accuracy [%]: 100.0%
[3]; validation standard LLOV
  Autosampler (24h, 4°C) Accuracy [%]: 97.6%
  Autosampler (72h, 4°C) Accuracy [%]: 95.8%
[3]; validation standard MOV
  Autosampler (24h, 4°C) Accuracy [%]: 103.0%
  Autosampler (72h, 4°C) Accuracy [%]: 103.7%
[3]; validation standard ULOV
  Autosampler (24h, 4°C) Accuracy [%]: 100.0%
  Autosampler (72h, 4°C) Accuracy [%]: 102.6%
[4]
  cmin: 66 ng/mL

## CNC(=O)c1cc(Oc2ccc(NC(=O)Nc3ccc(Cl)c(C(F)(F)F)c3)c(F)c2)ccn1 [Regorafenib]
[1]; validation standard 2xLLOV
  Freeze-Thaw Accuracy [%]: 97.1%
[1]; validation standard LLOV
  Freeze-Thaw Accuracy [%]: 101.6%
[1]; validation standard MOV
  Freeze-Thaw Accuracy [%]: 96.2%
[1]; validation standard ULOV
  Freeze-Thaw Accuracy [%]: 98.6%
[5]; validation standard 2xLLOV
  Short-time stability (1h, 56°C) Accuracy [%]: 41.3%
  Short-time stability (24h, 4°C, without daylight) Accuracy [%]: 95.0%
  Short-time stability (24h, RT, with daylight) Accuracy [%]: 89.4%
  Short-time stability (24h, RT, without daylight) Accuracy [%]: 83.8%
[5]; validation standard LLOV
  Short-time stability (1h, 56°C) Accuracy [%]: 32.3%
  Short-time stability (24h, 4°C, without daylight) Accuracy [%]: 83.3%
  Short-time stability (24h, RT, with daylight) Accuracy [%]: 88.6%
  Short-time stability (24h, RT, without daylight) Accuracy [%]: 80.3%
[5]; validation standard MOV
  Short-time stability (1h, 56°C) Accuracy [%]: 39.7%
  Short-time stability (24h, 4°C, without daylight) Accuracy [%]: 104.6%
  Short-time stability (24h, RT, with daylight) Accuracy [%]: 90.2%
  Short-time stability (24h, RT, without daylight) Accuracy [%]: 90.8%
[5]; validation standard ULOV
  Short-time stability (1h, 56°C) Accuracy [%]: 35.4%
  Short-time stability (24h, 4°C, without daylight) Accuracy [%]: 101.4%
  Short-time stability (24h, RT, with daylight) Accuracy [%]: 89.0%
  Short-time stability (24h, RT, without daylight) Accuracy [%]: 87.8%
[3]; validation standard 2xLLOV
  Autosampler (24h, 4°C) Accuracy [%]: 101.6%
  Autosampler (72h, 4°C) Accuracy [%]: 101.1%
[3]; validation standard LLOV
  Autosampler (24h, 4°C) Accuracy [%]: 107.3%
  Autosampler (72h, 4°C) Accuracy [%]: 102.1%
[3]; validation standard MOV
  Autosampler (24h, 4°C) Accuracy [%]: 101.4%
  Autosampler (72h, 4°C) Accuracy [%]: 104.4%
[3]; validation standard ULOV
  Autosampler (24h, 4°C) Accuracy [%]: 104.2%
  Autosampler (72h, 4°C) Accuracy [%]: 99.3%
[6]; validation standard 2xLLOV
  Long-term stability, 1 month, -20°C Accuracy [%]: 101.2%
  Long-term stability, 1 month, -80°C Accuracy [%]: 104.0%
  Long-term stability, 2 month, -20°C Accuracy [%]: 105.6%
  Long-term stability, 2 month, -80°C Accuracy [%]: 104.3%
  Long-term stability, 3 month, -20°C Accuracy [%]: 90.7%
  Long-term stability, 3 month, -80°C Accuracy [%]: 103.7%
  Long-term stability, 6 weeks, 4°C, without daylight Accuracy [%]: 80.6%
[6]; validation standard LLOV
  Long-term stability, 1 month, -20°C Accuracy [%]: 105.4%
  Long-term stability, 1 month, -80°C Accuracy [%]: 102.9%
  Long-term stability, 2 month, -20°C Accuracy [%]: 106.3%
  Long-term stability, 2 month, -80°C Accuracy [%]: 104.7%
  Long-term stability, 3 month, -20°C Accuracy [%]: 94.0%
  Long-term stability, 3 month, -80°C Accuracy [%]: 105.1%
  Long-term stability, 6 weeks, 4°C, without daylight Accuracy [%]: 79.3%
[6]; validation standard MOV
  Long-term stability, 1 month, -20°C Accuracy [%]: 101.6%
  Long-term stability, 1 month, -80°C Accuracy [%]: 106.3%
  Long-term stability, 2 month, -20°C Accuracy [%]: 105.8%
  Long-term stability, 2 month, -80°C Accuracy [%]: 112.2%
  Long-term stability, 3 month, -20°C Accuracy [%]: 97.1%
  Long-term stability, 3 month, -80°C Accuracy [%]: 100.4%
  Long-term stability, 6 weeks, 4°C, without daylight Accuracy [%]: 101.0%
[6]; validation standard ULOV
  Long-term stability, 1 month, -20°C Accuracy [%]: 104.7%
  Long-term stability, 1 month, -80°C Accuracy [%]: 103.8%
  Long-term stability, 2 month, -20°C Accuracy [%]: 108.5%
  Long-term stability, 2 month, -80°C Accuracy [%]: 107.0%
  Long-term stability, 3 month, -20°C Accuracy [%]: 92.9%
  Long-term stability, 3 month, -80°C Accuracy [%]: 103.1%
  Long-term stability, 6 weeks, 4°C, without daylight Accuracy [%]: 95.5%
[7]
  cmin: 1400 ng/mL

Source: PMC8699473, “An Easily Expandable Multi-Drug LC-MS Assay for the Simultaneous Quantification of 57 Oral Antitumor Drugs in Human Plasma” (Cancers, 2021)
